Results published in paper PMC9006931, “Altered Response Pattern following AZD5582 Treatment of SIV-Infected, ART-Suppressed Rhesus Macaque Infants” (Journal of Virology, 2022).

How the values were obtained:
[1] = test system: ncNF-κB pathway genes BIRC3 and NFkB2; assay: Ex vivo AZD5582 stimulation of sorted naive and memory CD4+ T cells, target gene RT-qPCR; type: cell-based, rhesus macaque; conditions: 1000 nM (n = 6) or 100 nM (n = 4) AZD5582, 24 h
From the text: We have previously shown that naive CD4^+ T cells are a major contributor to the viral reservoir in both SIV- and SHIV-infected infant macaques ([10], [11]). We were therefore interested to determine whether the dampened ART viremia that we observed in vivo was due to differential induction of ncNF-kB activation in naive and memory CD4^+ T cells following AZD5582 treatment. It is well documented that activation of naive CD4^+ T cells relies predominantly on cNF-κB and not the ncNF-κB pathway ([22]). […]
For cell sorting, peripheral CD4^+ T cells were first enriched by negative selection with the use of magnetic beads and column purification (nonhuman primate CD4^+ T cell isolation kit; Miltenyi). Enriched CD4^+ T cells were then stained with viability dye (Live/Dead Aqua) and previously determined volumes of the following fluorescently conjugated MAbs: CD3-AF700 (clone SP34-2), CD8-APC-Cy7 (clone SK1), CD95-PE-Cy5 (clone DX2), CD62L-PE (clone SK11), and CCR7-PE-Cy7 (clone 3D12) from BD Biosciences; CD4-BV650 from BioLegend. […]
Naïve and memory CD4^+ T cells were treated with 100 or 1000 nM AZD5582 for 24 h and then stored as a dry pellet until RNA extraction. […] Gene expression was normalized to TATA box binding protein (TBP) and the comparative threshold cycle (Ct) method (ΔΔCt) was used for relative quantification of gene expression. […]

[2] = test system: CD4+ T cells from SIV-infected, ART-suppressed infant RMs; assay: Ex vivo viral RNA induction assay, infant CD4+ T cells; type: cell-based, rhesus macaque; conditions: 100 nM, 9 days, in presence of DTG+FTC
From the text: Following confirmation of ncNF-κB pathway activation in infant naive and memory CD4^+ T cells ex vivo, we next sought to evaluate SIV reactivation following ex vivo AZD5582 stimulation in CD4^+ T cells isolated from SIV-infected, ART-suppressed infant RMs compared to CD4^+ T cells from SIV-infected, ART-suppressed adult RMs. To do so, we isolated CD4^+ T cells through negative selection from the peripheral blood of five SIV-infected, ART-suppressed adult RMs and five SIV-infected, ART-suppressed infant RMs. Cells were stimulated with either 100 nM AZD5582 or rhesus specific anti-CD2/CD3/CD28 beads (as a positive control) in the presence of ART (DTG+FTC) for 9 days. The supernatant was collected to quantify SIVgag RNA through qPCR as a measure of viral reactivation.
Viable cryopreserved PBMCs from SIV-infected, ART-suppressed infant and adult RMs collected 34 to 97 weeks post ART initiation were thawed, and CD4^+ T cells were enriched by negative selection using the NHP CD4^+ T cell isolation kit (Miltenyi Biotec). […] The viral RNA content of frozen cell-free culture supernatants collected on day 9 was determined using the SIVgag qPCR described above.

[3] = design: method as in PMID 31969707; conditions: adult RMs (n = 7), matched doses, plasma; cited from earlier work

## CN[C@@H](C)C(=O)N[C@H](C(=O)N1CCC[C@H]1C(=O)N[C@H]1c2ccccc2C[C@H]1OCC#CC#CCO[C@@H]1Cc2ccccc2[C@@H]1NC(=O)[C@@H]1CCCN1C(=O)[C@@H](NC(=O)[C@H](C)NC)C1CCCCC1)C1CCCCC1 [AZD5582]
[1]
  Fold induction of BIRC3 gene expression, naive versus memory CD4+ T cells: No significant difference
  Fold induction of NFkB2 gene expression, naive versus memory CD4+ T cells: No significant difference
[2]
  Animals whose CD4+ T cell cultures showed increased SIV RNA expression in supernatant: 1/5
[3]
  AUC0-2h: 512 ng·h/mL
  Cmax: 802 ng/mL
